Test results as given in patent US11925629B2, “Heterocyclic inhibitors of ERK1 and ERK2 and their use in the treatment of cancer” (Asana Biosciences, LLC, priority 2015, dated 2024).
pIC50: −log10 of the molar value.

What was measured:
[1] = tested on: HT-29 (colorectal carcinoma, B-RafV600E) cells; assay: Cell proliferation (Alamar Blue) assay, HT-29; assay type: cell-based, human
Experimental: (§1) Cell Proliferation (Alamar Blue) Assay
(§2) HT-29 (colorectal carcinoma, B-RafV600E), HCT116 (colorectal carcinoma, K Ras G13D), A375 (melanoma, B-RafV600E) and SK-Mel2 (melanoma, NRAS Q61R) cells (obtained from ATCC, USA) were seeded (5000 cells/well) in 96-well tissue culture plate and incubated at 37° C./5% CO2 for 16-24 hours. The cells were then treated with compounds, at concentrations typically from 0.0005 to 10 uM prepared in 3-fold serial dilutions. The plates were then incubated for 72 h at 37° C./5% CO2 in a moist environment. Then Alamar Blue™ reagent (final concentration 1×) was added to each well and incubated for 1-3 h at 37° C./5% CO2. The plates were read on fluorescence reader at 540 nm excitation and 590 nm emission wavelengths. The IC50 values were subsequently determined using a sigmoidal dose-response curve (variable slope) using GraphPad Prism® 5 software.

[2] = tested on: HCT116 (colorectal carcinoma, K Ras G13D) cells; assay: Cell proliferation (Alamar Blue) assay, HCT116; assay type: cell-based, human
Experimental: as §1, §2

[3] = Homo sapiens, HT-29, HT29 cells
[4] = Homo sapiens, HCT-116, HCT116 cells

Structure (SMILES)	pIC50 [1, 3]	pIC50 [2, 4]	pIC50 ([1]; HT29 cells)	pIC50 ([2]; HCT116 cells)
O=C(Nc1cnn(-c2ccnc(Nc3ccccc3Cl)n2)c1)N[C@@H](CO)c1ccccc1 [Example 4, (R)-1-(1-(2-((2-chlorophenyl)amino)pyrimidin-4-yl)-1H-pyrazol-4-yl)-3-(2-hydroxy-1-phenylethyl) urea]	< 5.60	< 5.60		
Cc1cnc(NC2CC2)nc1-n1cc(C(=O)NC(CO)c2cccc(Cl)c2)cn1 (stereo not shown) [Example 40, N-(1-(3-chlorophenyl)-2-hydroxy-ethyl)-1-(2-(cyclopropyl-amino)-5-methyl-pyrimidin-4-yl)-1H-pyrazole-4-carboxamide]	< 5.60	< 5.60		
O=C(Nc1cnn(-c2ccnc(NC3CC3)n2)c1)N[C@H](CO)c1cccc(Cl)c1 [Example 6, (S)-1-(1-(3-chlorophenyl)-2-hydroxyethyl)-3-(1-(2-(cyclo-propyl-amino)pyrimidin-4-yl)-1H-pyrazol-4-yl)urea]	< 5.60	< 5.60		
Cc1cnc(Nc2ccc(F)cc2Cl)nc1-n1cc(NC(=O)NC(CO)c2cccc(Cl)c2)cn1 (stereo not shown) [Example 36, 1-(1-(2-((2-chloro-4-fluorophenyl)-amino)-5-methyl-pyrimidin-4-yl)-1H-pyrazol-4-yl)-3-(1-(3-chlorophenyl)-2-hydroxy-ethyl)urea]		< 5.60		
Cc1cnc(Nc2ccc(F)cc2Cl)nc1-n1cc(C(=O)N[C@H](CO)c2cccc(Cl)c2)cn1 [Example 35, (S)-1-(2-((2-chloro-4-fluoro-phenyl)amino)-5-methyl-pyrimidin-4-yl)-N-(1-(3-chloro-phenyl)-2-hydroxy-ethyl)-1H-pyrazole-4-carboxamide]		< 5.60		
O=C(Nc1cnn(-c2ccnc(Nc3ccc(F)cc3Cl)n2)c1)N[C@H](CO)c1cccc(Cl)c1 [Cmpd 20, (S)-1-(1-(2-((2-chloro-4-fluoro-phenyl)amino)pyrimidin-4-yl)-1H-pyrazol-4-yl)-3-(1-(3-chloro-phenyl)-2-hydroxyethyl) urea]		< 5.60		
Cc1cnc(Nc2ccccc2Cl)nc1-n1cc(NC(=O)N[C@H](CO)c2cccc(Cl)c2)cn1 [Cmpd 2, (S)-1-(1-(3-chlorophenyl)-2-hydroxyethyl)-3-(1-(2-((2-chloro-phenyl)amino)-5-methylpyrimidin-4-yl)-1H-pyrazol-4-yl)urea]	< 5.60	< 5.60		
O=C(Nc1cnn(-c2ccnc(Nc3ccccc3Cl)n2)c1)N[C@H](CO)c1ccccc1 [Example 7, (S)-1-(1-(2-((2-chlorophenyl)amino)pyrimidin-4-yl)-1H-pyrazol-4-yl)-3-(2-hydroxy-1-phenylethyl) urea]	< 5.60	< 5.60		
O=C(Nc1cnn(-c2ccnc(NC3CC3)n2)c1)NC(CO)c1cccc(Cl)c1 (stereo not shown) [Example 16, 1-(1-(3-chlorophenyl)-2-hydroxy-ethyl)-3-(1-(2-(cyclo-propylamino)pyrimidin-4-yl)-1H-pyrazol-4-yl)urea]		< 5.60		
COc1cc(N2CCN(C(C)=O)CC2)ccc1Nc1nccc(-n2cc(NC(=O)N[C@H](CO)c3cccc(Cl)c3)cn2)n1 [Example 15, (S)-1-(1-(2-((4-(4-acetyl-piperazin-1-yl)-2-methoxy-phenyl)amino)pyrimidin-4-yl)-1H-pyrazol-4-yl)-3-(1-(3-chloro-phenyl)-2-hydroxyethyl) urea]		< 5.60		
O=C(Nc1cnn(-c2ccnc(Nc3ccccc3Cl)n2)c1)N[C@H](CO)c1cccc(Cl)c1 [Example 1, (S)-1-(1-(3-chlorophenyl)-2-hydroxyethyl)-3-(1-(2-((2-chloro-phenyl)amino)pyrimidin-4-yl)-1H-pyrazol-4-yl) urea]		< 5.60		
O=C(Nc1cnn(-c2ccnc(Nc3ccccc3)c2)c1)NC(CO)c1cccc(Cl)c1 (stereo not shown) [Example 33, 1-(1-(3-chlorophenyl)-2-hydroxy-ethyl)-3-(1-(2-(phenyl-amino)-pyridin-4-yl)-1H-pyrazol-4-yl)urea]		< 5.60		
O=C(Nc1cnn(-c2ccnc(N[C@H]3CC[C@H](O)CC3)n2)c1)N[C@H](CO)c1cccc(Cl)c1 [Example 14, 1-((S)-1-(3-chlorophenyl)-2-hydroxy-ethyl)-3-(1-(2-((trans-4-hydroxycyclo-hexyl)amino)pyrimidin-4-yl)-1H-pyrazol-4-yl)urea]		< 5.60		

Continued, values first:

pIC50 [1, 3]	pIC50 [2, 4]	pIC50 ([1]; HT29 cells)	pIC50 ([2]; HCT116 cells)	Structure (SMILES)
< 5.60	< 5.60			Cc1cnc(Nc2ccc3ocnc3c2)nc1-n1ccc(C(=O)NC(CO)c2ccccc2)c1 (stereo not shown) [Example 104, 1-(2-(benzo[d]oxazol-5-ylamino)-5-methyl-pyrimidin-4-yl)-N-(2-hydroxy-1-phenylethyl)-1H-pyrrole-3-carboxamide]
< 5.60	< 5.60			Cc1cnc(Nc2cccnc2)cc1-n1ccc(C(=O)NC(CO)c2ccccc2)c1 (stereo not shown) [Example 81, N-(2-hydroxy-1-phenylethyl)-1-(5-methyl-2-(pyridin-3-ylamino)pyridin-4-yl)-1H-pyrrole-3-carboxamide]
< 5.60	< 5.60			Cc1cnc(Nc2ccc(F)cc2)cc1-n1cnc(C(=O)NC(CO)c2ccccc2)c1 (stereo not shown) [Example 222, 1-(2-((4-fluorophenyl)amino)-5-methylpyridin-4-yl)-N-(2-hydroxy-1-phenylethyl)-1H-imidazole-4-carboxamide]
< 5.60	< 5.60			O=C(NC(CO)c1ccccc1)c1ccn(-c2ccnc(Nc3ccc(F)cc3)c2)c1 (stereo not shown) [Example 84, 1-(2-((4-fluoro-phenyl)amino)pyridin-4-yl)-N-(2-hydroxy-1-phenyl-ethyl)-1H-pyrrole-3-carboxamide]
< 5.60	< 5.60			Cc1cnc(Nc2ccc(F)cc2Cl)nc1-n1ccc(C(=O)N[C@@H](CN(C)C)c2ccccc2)c1 [Example 97, (R)-1-(2-((2-chloro-4-fluorophenyl)amino)-5-methyl-pyrimidin-4-yl)-N-(2-(dimethyl-amino)-1-phenylethyl)-1H-pyrrole-3-carboxamide]
< 5.60	< 5.60			Cc1cnc(Nc2ccc3c(c2)OCO3)nc1-n1cc(NC(=O)N[C@H](CO)c2cccc(Cl)c2)cn1 [Example 44, (S)-1-(1-(2-(benzo[d][1,3]dioxol-5-ylamino)-5-methyl-pyrimidin-4-yl)-1H-pyrazol-4-yl)-3-(1-(3-chloro-phenyl)-2-hydroxy-ethyl)urea]
< 5.60	< 5.60			Cc1cnc(Nc2ccc3c(c2)OCO3)nc1-n1cc(C(=O)N[C@H](CO)c2cccc(Cl)c2)cn1 [Example 50, (S)-1-(2-(benzo[d][1,3]dioxol-5-ylamino)-5-methyl-pyrimidin-4-yl)-N-(1-(3-chloro-phenyl)-2-hydroxy-ethyl)-1H-pyrazole-4-carboxamide]
6.30 to 6.60	< 5.60			Cc1cnc(NC2CCCCC2)nc1-n1cnc(C(=O)NC(CO)c2cccc(Cl)c2)c1 (stereo not shown) [Example 226, N-(1-(3-chlorophenyl)-2-hydroxyethyl)-1-(2-(cyclohexylamino)-5-methylpyrimidin-4-yl)-1H-imidazole-4-carboxamide]
< 5.60	< 5.60			O=C(NC(CO)c1cccc(Cl)c1)c1ccn(-c2ccnc(Nc3ccccc3)c2)c1 (stereo not shown) [Example 46, N-(1-(3-chloro-phenyl)-2-hydroxy-ethyl)-1-(2-(phenyl-amino)pyridin-4-yl)-1H-pyrrole-3-carboxamide]
< 5.60	< 5.60			Cc1cnc(Nc2ccc(N3CCNCC3)cc2)cc1-n1ccc(C(=O)NC(CO)c2ccccc2)c1 (stereo not shown) [Example 83, N-(2-hydroxy-1-phenylethyl)-1-(5-methyl-2-((4-(piperazin-1-yl)-phenyl)amino)-pyridin-4-yl)-1H-pyrrole-3-carboxamide]
< 5.60	< 5.60			Cc1cnc(Nc2ccc(F)cc2Cl)cc1-n1cnc(C(=O)NC(CO)c2ccccc2)c1 (stereo not shown) [Example 85, 1-(2-((2-chloro-4-fluorophenyl)amino)-5-methyl-pyridin-4-yl)-N-(2-hydroxy-1-phenylethyl)-1H-imidazole-4-carboxamide]
5.60 to 6.30	< 5.60			Cc1cnc(Nc2ccc(F)cc2)cc1-n1cnc(C(=O)NC(CN)c2ccc(F)cc2)c1 (stereo not shown) [Example 230, N-(2-amino-1-(4-fluorophenyl)ethyl)-1-(2-((4-fluorophenyl)amino)-5-methylpyridin-4-yl)-1H-imidazole-4-carboxamide]
		6.60 to 7.00		Cc1cnc(Nc2ccc(F)cc2)cc1-n1cnc(C(=O)NC(CN)c2ccccc2)c1 (single isomer, unassigned; enantiomer #1) [Example 227, N-(2-amino-1-phenylethyl)-1-(2-((4-fluorophenyl)amino)-5-methylpyridin-4-yl)-1H-imidazole-4-carboxamide, Enantiomer #1]
	< 5.60			O=C(N[C@H](CO)c1cccc(Cl)c1)c1ccn(-c2ccnc(Nc3ccc(F)cc3Cl)n2)c1 [Example 112, (S)-1-(2-((2-chloro-4-fluorophenyl)-amino)pyrimidin-4-yl)-N-(1-(3-chlorophenyl)-2-hydroxy-ethyl)-1H-pyrrole-3-carboxamide]
			≥ 7.00	Cc1cnc(NC2CCOCC2)nc1-n1cnc(C(=O)NC(CN)c2ccc(Cl)s2)c1 (stereo not shown) [Example 274, N-(2-amino-1-(5-chlorothiophen-2-yl)ethyl)-1-(5-methyl-2-((tetrahydro-2H-pyran-4-yl)amino)pyrimidin-4-yl)-1H-imidazole-4-carboxamide]
			≥ 7.00	Cc1cnc(NC2CCOCC2)nc1-n1cnc(C(=O)NC(CN)c2ccc(Cl)s2)c1 (single isomer, unassigned; enantiomer #1) [Example 290, N-(2-amino-1-(5-chlorothiophen-2-yl)ethyl)-1-(5-methyl-2-((tetrahydro-2H-pyran-4-yl)amino)pyrimidin-4-yl)-1H-imidazole-4-carboxamide (enantiomer #1)]
